Reference: ChEMBL document CHEMBL1201862, “PubChem BioAssay data set” (2004)
Active and inactive are the calls of the source.

Columns and labels:
[1] = biological target: Melanin-concentrating hormone receptor 1 (Homo sapiens, UniProt Q99705); experiment: Late-stage fluorescence-based counterscreen for antagonists of the G-protein coupled receptor 7 (GPR7): cell-based dose response assay to identify antagonists of the melanin-concentrating hormone receptor 1 (MCHR1) Set 6.; type: functional
[2] = biological target: Neuropeptides B/W receptor type 1 (Homo sapiens, UniProt P48145); experiment: human NPBW1 receptor blockade, IC50 – cell-based, fluorescence, dose response, set 6, late-stage follow-up (AID 588583); type: functional
Neuropeptides B/W receptor type 1, sequence (P48145 whole entry): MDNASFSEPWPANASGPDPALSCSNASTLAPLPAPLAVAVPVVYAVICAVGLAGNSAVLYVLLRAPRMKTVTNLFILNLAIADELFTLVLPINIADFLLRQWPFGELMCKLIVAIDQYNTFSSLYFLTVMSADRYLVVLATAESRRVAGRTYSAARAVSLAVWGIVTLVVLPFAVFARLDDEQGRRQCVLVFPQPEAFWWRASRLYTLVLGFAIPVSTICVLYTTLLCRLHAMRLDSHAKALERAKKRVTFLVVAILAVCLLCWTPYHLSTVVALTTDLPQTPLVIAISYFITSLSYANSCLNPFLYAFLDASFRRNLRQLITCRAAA

[3] = biological target: Beta-2 adrenergic receptor (Homo sapiens, UniProt P07550); experiment: ADRB2 activation measured by internalization – cell-based, FAP fluorogen, flow cytometry, cherry pick 1, dose response (AID 588763); type: functional
Beta-2 adrenergic receptor, sequence (P07550 whole entry): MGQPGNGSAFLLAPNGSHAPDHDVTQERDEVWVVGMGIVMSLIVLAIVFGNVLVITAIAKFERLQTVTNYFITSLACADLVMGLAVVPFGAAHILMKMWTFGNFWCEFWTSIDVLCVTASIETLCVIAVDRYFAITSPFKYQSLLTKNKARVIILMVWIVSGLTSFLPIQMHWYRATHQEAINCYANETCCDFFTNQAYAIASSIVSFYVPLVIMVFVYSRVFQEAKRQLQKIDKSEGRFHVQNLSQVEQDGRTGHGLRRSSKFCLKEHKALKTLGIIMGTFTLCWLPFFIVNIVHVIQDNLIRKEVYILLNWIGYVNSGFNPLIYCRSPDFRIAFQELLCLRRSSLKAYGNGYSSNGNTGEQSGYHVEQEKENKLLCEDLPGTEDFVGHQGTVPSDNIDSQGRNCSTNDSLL

[4] = biological target: Aurora kinase B (Homo sapiens, UniProt Q96GD4); type: functional
Aurora kinase B, sequence (Q96GD4 whole entry): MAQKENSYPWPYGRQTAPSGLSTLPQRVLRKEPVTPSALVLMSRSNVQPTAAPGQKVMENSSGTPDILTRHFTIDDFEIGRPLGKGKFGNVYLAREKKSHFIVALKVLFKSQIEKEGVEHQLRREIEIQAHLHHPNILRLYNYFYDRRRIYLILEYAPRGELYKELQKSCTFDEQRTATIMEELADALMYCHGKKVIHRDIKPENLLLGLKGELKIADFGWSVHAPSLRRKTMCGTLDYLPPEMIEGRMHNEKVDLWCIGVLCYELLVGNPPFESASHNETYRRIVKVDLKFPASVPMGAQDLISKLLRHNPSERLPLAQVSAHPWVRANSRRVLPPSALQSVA

[5] = biological target: Focal adhesion kinase 1 (Homo sapiens, UniProt Q05397); type: functional;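 note: measured as one member of a kinome panel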
Focal adhesion kinase 1, sequence (Q05397 whole entry): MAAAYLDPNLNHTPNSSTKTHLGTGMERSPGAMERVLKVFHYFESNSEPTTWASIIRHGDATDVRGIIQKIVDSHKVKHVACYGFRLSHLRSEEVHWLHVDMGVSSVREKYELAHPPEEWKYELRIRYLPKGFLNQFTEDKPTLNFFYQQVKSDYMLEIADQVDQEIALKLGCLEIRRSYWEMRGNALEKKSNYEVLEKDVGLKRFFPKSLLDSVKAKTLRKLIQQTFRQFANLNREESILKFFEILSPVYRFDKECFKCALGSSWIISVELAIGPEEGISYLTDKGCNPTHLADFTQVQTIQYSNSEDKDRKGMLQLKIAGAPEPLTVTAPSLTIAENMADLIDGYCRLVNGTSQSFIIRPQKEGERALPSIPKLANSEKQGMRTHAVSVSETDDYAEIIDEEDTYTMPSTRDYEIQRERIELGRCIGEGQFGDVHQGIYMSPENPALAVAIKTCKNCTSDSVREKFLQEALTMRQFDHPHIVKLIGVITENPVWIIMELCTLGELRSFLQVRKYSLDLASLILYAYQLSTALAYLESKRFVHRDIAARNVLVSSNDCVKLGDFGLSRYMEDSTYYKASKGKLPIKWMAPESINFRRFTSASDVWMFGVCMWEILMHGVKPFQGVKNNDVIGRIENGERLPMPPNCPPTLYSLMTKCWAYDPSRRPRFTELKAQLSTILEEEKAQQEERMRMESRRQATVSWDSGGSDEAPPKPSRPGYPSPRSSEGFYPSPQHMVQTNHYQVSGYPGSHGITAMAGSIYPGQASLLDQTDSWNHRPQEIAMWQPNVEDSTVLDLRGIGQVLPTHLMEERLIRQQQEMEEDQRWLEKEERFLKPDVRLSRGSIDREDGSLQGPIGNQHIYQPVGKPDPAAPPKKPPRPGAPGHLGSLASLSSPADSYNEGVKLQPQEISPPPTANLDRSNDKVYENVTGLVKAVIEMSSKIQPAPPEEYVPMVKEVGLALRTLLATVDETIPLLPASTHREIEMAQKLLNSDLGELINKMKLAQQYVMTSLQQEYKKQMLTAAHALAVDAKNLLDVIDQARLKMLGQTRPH

[6] = biological target: Aurora kinase A (Homo sapiens, UniProt O14965); type: functional;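 note: value from the Navigating the Kinome kinase panel profiling, panel entry STK6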
Aurora kinase A, sequence (O14965 whole entry): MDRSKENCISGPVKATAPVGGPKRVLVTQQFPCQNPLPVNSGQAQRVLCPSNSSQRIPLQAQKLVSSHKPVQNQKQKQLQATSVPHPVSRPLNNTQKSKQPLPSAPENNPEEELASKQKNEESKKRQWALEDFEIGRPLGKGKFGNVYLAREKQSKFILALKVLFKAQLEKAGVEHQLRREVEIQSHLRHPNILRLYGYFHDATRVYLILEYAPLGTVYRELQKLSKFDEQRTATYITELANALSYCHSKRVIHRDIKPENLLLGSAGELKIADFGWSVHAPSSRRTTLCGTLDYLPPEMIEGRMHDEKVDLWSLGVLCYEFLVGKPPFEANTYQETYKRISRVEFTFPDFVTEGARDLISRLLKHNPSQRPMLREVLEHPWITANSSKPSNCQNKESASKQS

[7] = biological target: ALK tyrosine kinase receptor (Homo sapiens, UniProt Q9UM73); type: functional;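 note: ALK tested as one member of a kinase panel screen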
ALK tyrosine kinase receptor, sequence (Q9UM73 whole entry): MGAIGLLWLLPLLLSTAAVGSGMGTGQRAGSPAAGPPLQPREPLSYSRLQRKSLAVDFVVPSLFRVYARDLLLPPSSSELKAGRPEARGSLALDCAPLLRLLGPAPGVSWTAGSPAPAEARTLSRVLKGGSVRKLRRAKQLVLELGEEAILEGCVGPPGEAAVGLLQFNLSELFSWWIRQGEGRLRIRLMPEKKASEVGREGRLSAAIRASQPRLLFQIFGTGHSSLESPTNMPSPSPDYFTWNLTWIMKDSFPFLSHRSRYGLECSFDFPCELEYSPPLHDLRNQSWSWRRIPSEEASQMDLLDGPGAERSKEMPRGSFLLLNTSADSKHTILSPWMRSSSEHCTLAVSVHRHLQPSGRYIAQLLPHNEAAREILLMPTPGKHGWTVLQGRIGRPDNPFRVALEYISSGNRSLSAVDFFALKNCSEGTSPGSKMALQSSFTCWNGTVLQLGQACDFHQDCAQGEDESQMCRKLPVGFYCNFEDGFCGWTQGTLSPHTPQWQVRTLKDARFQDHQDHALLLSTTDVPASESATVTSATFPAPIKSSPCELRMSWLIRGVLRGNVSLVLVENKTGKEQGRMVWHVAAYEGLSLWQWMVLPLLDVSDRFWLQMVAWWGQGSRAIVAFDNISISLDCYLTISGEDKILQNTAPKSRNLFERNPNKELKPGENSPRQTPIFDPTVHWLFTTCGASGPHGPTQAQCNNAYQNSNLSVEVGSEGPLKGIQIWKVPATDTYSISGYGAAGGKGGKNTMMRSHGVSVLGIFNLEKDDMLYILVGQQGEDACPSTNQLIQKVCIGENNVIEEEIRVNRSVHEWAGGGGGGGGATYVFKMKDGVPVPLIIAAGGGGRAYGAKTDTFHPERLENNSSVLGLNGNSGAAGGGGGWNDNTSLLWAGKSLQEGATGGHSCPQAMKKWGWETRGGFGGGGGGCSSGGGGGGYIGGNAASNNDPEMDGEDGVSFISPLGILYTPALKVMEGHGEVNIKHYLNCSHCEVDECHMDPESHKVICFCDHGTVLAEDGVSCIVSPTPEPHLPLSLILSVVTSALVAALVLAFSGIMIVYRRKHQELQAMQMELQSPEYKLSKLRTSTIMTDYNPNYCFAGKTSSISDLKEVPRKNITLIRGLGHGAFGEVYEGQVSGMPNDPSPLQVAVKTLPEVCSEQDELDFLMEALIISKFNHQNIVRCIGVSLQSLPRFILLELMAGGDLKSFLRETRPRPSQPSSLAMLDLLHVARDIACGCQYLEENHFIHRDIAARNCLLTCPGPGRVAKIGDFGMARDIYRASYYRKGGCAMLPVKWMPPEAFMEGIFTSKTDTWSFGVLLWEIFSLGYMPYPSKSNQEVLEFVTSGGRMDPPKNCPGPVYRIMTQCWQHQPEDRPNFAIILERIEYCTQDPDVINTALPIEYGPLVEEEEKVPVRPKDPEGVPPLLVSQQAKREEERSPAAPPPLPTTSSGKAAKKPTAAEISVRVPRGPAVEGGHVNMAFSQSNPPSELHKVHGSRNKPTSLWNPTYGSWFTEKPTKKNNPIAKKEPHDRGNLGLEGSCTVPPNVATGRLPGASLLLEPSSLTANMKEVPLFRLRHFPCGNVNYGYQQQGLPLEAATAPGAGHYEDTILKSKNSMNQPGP

[8] = test system: HEK293; experiment: EBV LMP1 TES2 canonical NF-kB signalling blockers – cell-based, HEK293, luciferase, cherry-pick, dose response (AID 588343); type: functional; conditions: Homo sapiens
[9] = loss of viability in HepG2 cells – cell-based, CellTiter-Glo, cherry-picked, cytotoxicity control for Shn3 inhibitor project, dose response (AID 624134); type: functional
[10] = reduction of Shn3 3'UTR-driven luciferase in osteoblasts – cell-based, Clone20 osteoblasts, firefly luciferase, cherry-picked, dose response (AID 624132); type: functional;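 note: firefly luciferase luminescence from reporter carrying the Shn3 3'UTR in osteoblasts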
[11] = non-specific 3'UTR reporter inhibition in Clone20-Shn3RL – cell-based, Renilla luciferase, cherry-picked, counter-screen for Shn3 inhibitor project, dose response (AID 624133); type: functional
[12] = biological target: T1, Insulin-degrading enzyme (Homo sapiens, UniProt P14735); experiment: cellular IDE activation of Abeta substrate cleavage – fluorescence polarization, HEK cells, dose response (AID 588439); type: functional, cell-based
T1 sequence (P14735 whole entry): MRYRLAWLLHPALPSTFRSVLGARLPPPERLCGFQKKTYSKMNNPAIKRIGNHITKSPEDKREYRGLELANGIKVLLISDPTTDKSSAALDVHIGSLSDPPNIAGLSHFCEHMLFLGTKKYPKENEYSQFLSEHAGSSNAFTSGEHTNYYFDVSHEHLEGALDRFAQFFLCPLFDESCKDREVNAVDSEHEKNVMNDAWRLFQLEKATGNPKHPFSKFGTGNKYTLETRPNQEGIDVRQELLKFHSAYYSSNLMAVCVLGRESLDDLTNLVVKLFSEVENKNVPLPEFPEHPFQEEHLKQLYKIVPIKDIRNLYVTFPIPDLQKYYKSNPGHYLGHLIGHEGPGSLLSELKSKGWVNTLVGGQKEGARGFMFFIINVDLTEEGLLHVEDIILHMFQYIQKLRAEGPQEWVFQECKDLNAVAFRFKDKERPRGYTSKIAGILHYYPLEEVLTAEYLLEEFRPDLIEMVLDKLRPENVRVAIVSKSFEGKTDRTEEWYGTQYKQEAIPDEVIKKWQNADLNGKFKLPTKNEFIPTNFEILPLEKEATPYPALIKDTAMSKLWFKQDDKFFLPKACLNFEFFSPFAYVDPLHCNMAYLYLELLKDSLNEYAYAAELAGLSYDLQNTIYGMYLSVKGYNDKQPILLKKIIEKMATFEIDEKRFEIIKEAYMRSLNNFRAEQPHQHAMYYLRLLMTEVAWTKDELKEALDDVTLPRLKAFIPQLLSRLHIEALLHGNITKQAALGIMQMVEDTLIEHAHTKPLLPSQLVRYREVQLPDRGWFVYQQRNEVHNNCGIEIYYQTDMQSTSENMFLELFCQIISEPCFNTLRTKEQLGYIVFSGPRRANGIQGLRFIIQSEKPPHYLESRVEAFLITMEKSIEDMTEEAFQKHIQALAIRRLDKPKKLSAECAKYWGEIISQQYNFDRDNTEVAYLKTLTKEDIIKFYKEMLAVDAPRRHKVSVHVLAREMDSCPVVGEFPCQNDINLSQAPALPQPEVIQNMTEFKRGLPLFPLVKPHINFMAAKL

[13] = test system: HEK293; experiment: optical interference in Abeta FP readout, dose response, artefact control for IDE activator project, biochemical, fluorescence polarization (AID 588442); type: functional, cell-based; conditions: Homo sapiens
[14] = test system: HEK293; experiment: membrane integrity loss in HEK cells – cell-based, fluorescence, cytotoxicity control for IDE activator project, dose response (AID 588440); type: functional; conditions: Homo sapiens;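 note: cytotoxicity by LDH release measuring loss of membrane integrity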
[15] = biological target: T1, Insulin-degrading enzyme; experiment: recombinant IDE activation, cell-free – biochemical, fluorescence polarization, counter-screen for IDE activator project, dose response (AID 588681)

Melanin-concentrating hormone receptor 1, sequence (Q99705 whole entry): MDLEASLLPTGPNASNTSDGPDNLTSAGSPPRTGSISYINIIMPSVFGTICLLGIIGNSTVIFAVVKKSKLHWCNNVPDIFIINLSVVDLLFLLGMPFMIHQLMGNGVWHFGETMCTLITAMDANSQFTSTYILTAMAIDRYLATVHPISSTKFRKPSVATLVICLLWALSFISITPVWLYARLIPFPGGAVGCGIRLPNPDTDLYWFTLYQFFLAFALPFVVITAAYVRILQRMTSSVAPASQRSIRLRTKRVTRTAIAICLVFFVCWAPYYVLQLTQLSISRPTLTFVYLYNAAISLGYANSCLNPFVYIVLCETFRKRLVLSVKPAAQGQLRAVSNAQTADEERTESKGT

Question: With COc1ccc(Oc2c(Cl)cnn(CC(=O)Nc3ccccc3-c3ccccc3)c2=O)cc1 as the molecule, how does the IC50 [1] read?
Answer: 1140 nM (active)

Question: And the IC50 [2]?
Answer: 1140 nM (active)

Question: With Cc1ccc(N(C)S(=O)(=O)c2cc(-c3cnc(C4CC4)o3)ccc2C)cc1 as the molecule, how does the EC50 [3] read?
Answer: 2460 nM (active)

Question: With Cc1cc(N2CCOCC2)cc2[nH]c(-c3c(NCC(O)c4ccccc4)cc[nH]c3=O)nc12 (stereo not given) as the molecule, how does the Ki [4] read?
Answer: 50.1 nM (active)

Question: What about the Ki [5] of the same molecule?
Answer: 31.6 nM (active)

Question: What about the Ki [6] of the same molecule?
Answer: 251 nM (active)

Question: What about the Ki [7] of the same molecule?
Answer: 79.4 nM (active)

Question: With Cc1ccccc1C(=O)NC(=S)Nc1ccc(N2CCN(C(=O)c3ccccc3)CC2)cc1 as the molecule, how does the AC50 [8] read?
Answer: 1700 nM (active)

Question: And the AC50 [9]?
Answer: 51500 nM (active)

Question: What about the AC50 [10] of the same molecule?
Answer: 1880 nM (active)

Question: What about the AC50 [11] of the same molecule?
Answer: 7720 nM (active)

Question: Which EC50 [12] does the source give for O=C(COc1cccc2cccnc12)Nc1cccc(S(=O)(=O)N2CCCC2)c1 here?
Answer: > 54700 nM (inactive)

Question: And the EC50 [13]?
Answer: > 55900 nM (inactive)

Question: And the IC50 [14]?
Answer: > 89200 nM (inactive)

Question: And the EC50 [15]?
Answer: > 54700 nM (inactive)
